Test results from patent US8609610B2, “Inhibitors of the trypsin-like site of the proteasome and methods of use thereof” (Trustees of Dartmouth College, priority 2011, dated 2013).

How the values were obtained:
KMS-12-BM cells = assay: ALAMAR BLUE cell viability assay; format: cell-based; settings: viability at 48 h
Description: (§1) RPMI-8226 and NCI-H929 cells were cultured in RPMI-1640 supplemented with 10% fetal bovine serum, penicillin, streptomycin, and plasmocin in 5% CO2 humidified incubator. HEK-293T cells were cultured in DMEM containing 10% fetal calf serum, 10 units/mL penicillin, and 10 μg/mL streptomycin in a 7% CO2 humidified incubator. Viability of multiple myeloma cells was measured with ALAMAR BLUE mitochondrial dye conversion assay. Viability of peripheral blood mononuclear cells (PBMNCs) was measured using CELL TITER-GLO luminescent cell viability assay (Promega), which is based on quantification of ATP present in the cells. Caspase-3/7 activity was measured using APO-ONE 3/7 homogeneous assay (Promega).

NCI-H929 cells = assay: ALAMAR BLUE cell viability assay; format: cell-based; settings: NCI-H929, viability at 48 h
Description: as §1

[1] = system: T1, chymotrypsin-like sites (β5) of proteasome in MM cells; assay: PROTEASOMEGLO assay of proteasome inhibition in MM cells; format: cell-based; settings: for Inhibition of chymotrypsin-like sites, 6 h −NC-022 / Inhibition of chymotrypsin-like sites, 6 h +NC-022: washout
T1 construct: other: NCI-H929; bortezomib 100 nM 1 h; bortezomib 11 nM 1 h; bortezomib 3.7 nM 1 h; bortezomib 33 nM 1 h; other: NCI-H9

[2] = system: chymotrypsin-like sites (β5) of proteasome in MM cells; assay: as above; format: cell-based; settings: KMS-12-BM, washout
[3] = biological target: T2, trypsin-like sites (β2) of proteasome in MM cells (Homo sapiens, UniProt Q99436); assay: as above; format: cell-based; settings: for Inhibition of trypsin-like sites, 6 h +NC-022 / Inhibition of trypsin-like sites, 6 h −NC-022: washout
T2 construct: endogenous in cells; host or cells: NCI-H929, RPMI-8226 and other MM cell lines
T2 sequence (Q99436 44-277): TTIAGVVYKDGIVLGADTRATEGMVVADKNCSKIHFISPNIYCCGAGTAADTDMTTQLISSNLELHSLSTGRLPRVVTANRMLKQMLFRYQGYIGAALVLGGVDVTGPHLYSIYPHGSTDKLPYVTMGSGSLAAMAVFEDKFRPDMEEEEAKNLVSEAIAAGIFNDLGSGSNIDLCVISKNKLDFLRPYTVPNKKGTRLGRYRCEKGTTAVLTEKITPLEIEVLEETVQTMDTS

chymotrypsin-like sites = settings: patients treated with bortezomib, maximal tolerated doses; cited from earlier work
[4] = KMS-12-BM, bortezomib 33.3 nM 1 h
[5] = KMS-12-BM, bortezomib 100 nM 1 h
[6] = KMS-12-BM, bortezomib 300 nM 1 h
[7] = KMS-12-BM, bortezomib 900 nM 1 h
[8] = NCI-H929, bortezomib 3.7 nM 1 h
[9] = NCI-H929, bortezomib 100 nM 1 h

CC(C)C[C@H](NC(=O)[C@H](Cc1ccccc1)NC(=O)c1cnccn1)B(O)O [Bortezomib]
Viability +NC-022 (KMS-12-BM cells; bortezomib 33.3 nM 1 h): 72 ± 1 % control | Viability −NC-022 (KMS-12-BM cells; bortezomib 33.3 nM 1 h): 98 ± 13 % control | Viability +NC-022 (KMS-12-BM cells; bortezomib 100 nM 1 h): 42 ± 10 % control | Viability −NC-022 (KMS-12-BM cells; bortezomib 100 nM 1 h): 92 ± 9 % control | Viability +NC-022 (KMS-12-BM cells; bortezomib 300 nM 1 h): 14 ± 11 % control | Viability −NC-022 (KMS-12-BM cells; bortezomib 300 nM 1 h): 66 ± 9 % control | Viability +NC-022 (KMS-12-BM cells; bortezomib 900 nM 1 h): 3.8 ± 2.5 % control | Viability −NC-022 (KMS-12-BM cells; bortezomib 900 nM 1 h): 14 ± 12 % control | Viability +NC-022 (NCI-H929 cells; bortezomib 3.7 nM 1 h): 85 ± 3 % control | Viability −NC-022 (NCI-H929 cells; bortezomib 3.7 nM 1 h): 107 ± 5 % control | Viability +NC-022 (NCI-H929 cells; bortezomib 11 nM 1 h): 65 ± 1 % control | Viability −NC-022 (NCI-H929 cells; bortezomib 11 nM 1 h): 106 ± 2 % control | Viability +NC-022 (NCI-H929 cells; bortezomib 33 nM 1 h): 19 ± 19 % control | Viability −NC-022 (NCI-H929 cells; bortezomib 33 nM 1 h): 53 ± 17 % control | Viability +NC-022 (NCI-H929 cells; bortezomib 100 nM 1 h): 1.9 ± 1.5 % control | Viability −NC-022 (NCI-H929 cells; bortezomib 100 nM 1 h): 2.9 ± 1.5 % control | Inhibition of chymotrypsin-like sites, 1 h [1, 4]: 82 ± 8 % control | Inhibition of chymotrypsin-like sites, 6 h −NC-022 [1, 4]: 56 ± 24 % control | Inhibition of chymotrypsin-like sites, 1 h [1, 5]: 90 ± 6 % control | Inhibition of chymotrypsin-like sites, 6 h −NC-022 [1, 5]: 64 ± 23 % control | Inhibition of chymotrypsin-like sites, 1 h [1, 6]: 93 ± 3 % control | Inhibition of chymotrypsin-like sites, 6 h +NC-022 [1, 6]: 83 ± 6 % control | Inhibition of chymotrypsin-like sites, 6 h −NC-022 [1, 6]: 76 ± 18 % control | Inhibition of chymotrypsin-like sites, 1 h [1, 7]: 93 ± 5 % control | Inhibition of chymotrypsin-like sites, 6 h +NC-022 [1, 7]: 88 ± 5 % control | Inhibition of chymotrypsin-like sites, 6 h −NC-022 [1, 7]: 84 ± 16 % control | Inhibition of chymotrypsin-like sites, 1 h [1, 8]: 9 ± 7 % control | Inhibition of chymotrypsin-like sites, 6 h +NC-022 [1, 8]: 14 ± 13 % control | Inhibition of chymotrypsin-like sites, 6 h −NC-022 [1, 8]: 13 ± 1 % control | Inhibition of chymotrypsin-like sites, 1 h ([1]; NCI-H929, bortezomib 11 nM 1 h): 64 ± 7 % control | Inhibition of chymotrypsin-like sites, 6 h +NC-022 ([1]; NCI-H929, bortezomib 11 nM 1 h): 34 ± 29 % control | Inhibition of chymotrypsin-like sites, 6 h −NC-022 ([1]; NCI-H929, bortezomib 11 nM 1 h): 41 ± 3.5 % control | Inhibition of chymotrypsin-like sites, 1 h ([1]; NCI-H929, bortezomib 33 nM 1 h): 89 ± 2 % control | Inhibition of chymotrypsin-like sites, 6 h +NC-022 ([1]; NCI-H929, bortezomib 33 nM 1 h): 48 ± 35 % control | Inhibition of chymotrypsin-like sites, 6 h −NC-022 ([1]; NCI-H929, bortezomib 33 nM 1 h): 85 ± 4 % control | Inhibition of chymotrypsin-like sites, 1 h [1, 9]: 96 ± 2 % control | Inhibition of chymotrypsin-like sites, 6 h +NC-022 [1, 9]: 93 ± 2 % control | Inhibition of chymotrypsin-like sites, 6 h −NC-022 [1, 9]: 86 ± 1 % control | Inhibition of chymotrypsin-like sites, 6 h +NC-022 ([2]; bortezomib 33.3 nM 1 h): 62 ± 7 % control | Inhibition of chymotrypsin-like sites, 6 h +NC-022 ([2]; bortezomib 100 nM 1 h): 75 ± 6 % control | Inhibition of trypsin-like sites, 1 h [3, 4]: 10 ± 11 % control | Inhibition of trypsin-like sites, 6 h +NC-022 [3, 4]: 92 ± 0 % control | Inhibition of trypsin-like sites, 6 h −NC-022 [3, 4]: 8 ± 15 % control | Inhibition of trypsin-like sites, 1 h [3, 5]: 19 ± 3 % control | Inhibition of trypsin-like sites, 6 h +NC-022 [3, 5]: 92 ± 1 % control | Inhibition of trypsin-like sites, 6 h −NC-022 [3, 5]: 15 ± 11 % control | Inhibition of trypsin-like sites, 1 h [3, 6]: 22 ± 12 % control | Inhibition of trypsin-like sites, 6 h +NC-022 [3, 6]: 91 ± 2 % control | Inhibition of trypsin-like sites, 6 h −NC-022 [3, 6]: 24 ± 18 % control | Inhibition of trypsin-like sites, 1 h [3, 7]: 28 ± 5 % control | Inhibition of trypsin-like sites, 6 h +NC-022 [3, 7]: 93 ± 1 % control | Inhibition of trypsin-like sites, 6 h −NC-022 [3, 7]: 26 ± 19 % control | Inhibition of trypsin-like sites, 1 h [3, 8]: 0 ± 7 % control | Inhibition of trypsin-like sites, 6 h +NC-022 [3, 8]: 93 ± 2 % control | Inhibition of trypsin-like sites, 6 h −NC-022 [3, 8]: 6 ± 4 % control | Inhibition of trypsin-like sites, 1 h ([3]; NCI-H929, bortezomib 11 nM 1 h): 8 ± 11 % control | Inhibition of trypsin-like sites, 6 h +NC-022 ([3]; NCI-H929, bortezomib 11 nM 1 h): 93 ± 2 % control | Inhibition of trypsin-like sites, 6 h −NC-022 ([3]; NCI-H929, bortezomib 11 nM 1 h): 14 ± 2 % control | Inhibition of trypsin-like sites, 1 h ([3]; NCI-H929, bortezomib 33 nM 1 h): 26 ± 15 % control | Inhibition of trypsin-like sites, 6 h +NC-022 ([3]; NCI-H929, bortezomib 33 nM 1 h): 94 ± 1 % control | Inhibition of trypsin-like sites, 6 h −NC-022 ([3]; NCI-H929, bortezomib 33 nM 1 h): 31 ± 0 % control | Inhibition of trypsin-like sites, 1 h [3, 9]: 36 ± 17 % control | Inhibition of trypsin-like sites, 6 h +NC-022 [3, 9]: 96 ± 1 % control | Inhibition of trypsin-like sites, 6 h −NC-022 [3, 9]: 45 ± 2 % control | inhibition of the chymotrypsin-like sites in patients (chymotrypsin-like sites): ≤ 70%
